One experiment has as its target T1, hTRPA1 (Homo sapiens (Human), UniProt O75762). Nature of the experiment: Dose response calcium flux assay (FLIPR), ChanTest hTRPA1-CHO stably transfected cell line. It counts as cell-based. As to conditions: CHO-K1 Tet-On human TRPA1 cells, cinnamaldehyde agonist (final 100 uM). The method in brief:
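Doxycycline-induced CHO-K1 Tet-On hTRPA1 cells, assayed 24 h post induction, Cal-3 dye loaded. Compounds (top 20 μM 3-fold or 30 μM 2-fold, 11 steps) preincubated 30 min at room temperature, then 100 μM cinnamaldehyde (final) added. FLIPR peak fluorescence increase measured against per-well baseline.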
In general terms: A change in cytosolic calcium serves as a functional read-out for many receptors and channels.
T1 sequence (O75762 whole entry): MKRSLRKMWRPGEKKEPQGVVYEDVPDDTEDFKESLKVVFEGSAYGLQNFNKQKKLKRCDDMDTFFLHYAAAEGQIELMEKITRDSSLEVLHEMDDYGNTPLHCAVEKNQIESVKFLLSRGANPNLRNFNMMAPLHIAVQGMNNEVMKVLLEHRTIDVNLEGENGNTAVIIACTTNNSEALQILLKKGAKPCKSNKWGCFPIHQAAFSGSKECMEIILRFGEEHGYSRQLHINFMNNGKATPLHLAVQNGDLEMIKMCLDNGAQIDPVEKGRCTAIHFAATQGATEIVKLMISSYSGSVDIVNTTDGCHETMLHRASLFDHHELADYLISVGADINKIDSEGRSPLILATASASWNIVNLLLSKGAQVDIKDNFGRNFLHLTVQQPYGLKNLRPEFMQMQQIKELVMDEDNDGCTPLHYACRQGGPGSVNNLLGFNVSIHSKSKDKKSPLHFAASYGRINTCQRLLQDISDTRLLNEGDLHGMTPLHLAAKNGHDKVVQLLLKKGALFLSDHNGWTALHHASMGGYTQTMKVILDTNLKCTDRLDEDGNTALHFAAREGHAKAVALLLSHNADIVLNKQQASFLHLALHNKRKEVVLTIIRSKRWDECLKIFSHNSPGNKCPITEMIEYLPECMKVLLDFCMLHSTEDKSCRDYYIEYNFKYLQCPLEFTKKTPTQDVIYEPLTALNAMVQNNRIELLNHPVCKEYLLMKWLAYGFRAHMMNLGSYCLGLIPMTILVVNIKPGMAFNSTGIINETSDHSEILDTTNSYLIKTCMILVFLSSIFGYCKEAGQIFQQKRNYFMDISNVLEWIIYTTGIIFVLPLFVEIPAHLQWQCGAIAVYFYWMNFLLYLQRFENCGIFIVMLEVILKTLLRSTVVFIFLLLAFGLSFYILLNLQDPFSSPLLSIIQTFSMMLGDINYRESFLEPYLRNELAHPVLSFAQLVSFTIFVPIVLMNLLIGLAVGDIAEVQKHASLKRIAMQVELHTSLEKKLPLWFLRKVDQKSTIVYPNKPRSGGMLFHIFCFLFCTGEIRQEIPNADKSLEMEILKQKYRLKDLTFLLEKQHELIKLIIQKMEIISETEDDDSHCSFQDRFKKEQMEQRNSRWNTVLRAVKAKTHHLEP
Turning to `CCN(CC(=O)NCc1cccc(-c2ccc(C(F)(F)F)cc2)c1)S(=O)(=O)c1ccc(F)cc1` [Example 23, 2-[Ethyl-(4-fluoro-benzenesulfonyl)-amino]-N-(4′-trifluoromethyl-biphenyl-3-ylmethyl)-acetamide], the half-maximal inhibitory concentration (IC50) was 29 nM.
With `CN(CC(=O)NCc1cc(-c2ccc(C(F)(F)F)cc2)ccc1F)S(=O)(=O)c1ccc(F)cc1` [Example 12, 2-[(4-Fluoro-benzenesulfonyl)-methyl-amino]-N-(4-fluoro-4′-trifluoromethyl-biphenyl-3-ylmethyl)-acetamide], the IC50 came to 48 nM.

A further experiment has as its target T1, hTRPA1. Nature of the experiment: IC50 determination on human TRPA1 channel, Hamamatsu FDSS calcium fluorescence, CHO cells. The format is cell-based. The conditions noted are these: CHO cells expressing human TRPA1; block of cinnamaldehyde induced calcium influx; Hill coefficient fixed to 1.5; read-out: hTRPA1 AUC IC50. As to the method:
IC50s (effective concentration) of compounds on the human TRPA1 channel were determined using a Hamamatsu FDSS fluorescence plate reader. CHO cells expressing human TRPA1 were plated into 384-well plates, incubated overnight at 37° C., and loaded with BD calcium indicator dye for 1 hr at 37° C. followed by 15 minutes at room temperature. The assay buffer was Hank's Balanced Salt Solution (HBSS) containing 20 mM HEPES (pH readjusted to 7.4) along with 0.02% BSA.
Following dye load and plate cool down, compounds were added to the cells using the FDSS while monitoring fluorescence to determine whether any of the test compounds have TRPA1 agonist activity. Plates were then incubated with compound for 20 minutes at room temperature prior to adding agonist. Following this incubation, […] cinnamaldehyde was added to all wells of the plate and block of this cinnamaldehyde induced calcium influx was measured.
Fixing the Hill coefficient will generally reduce variability of the IC50 determination. The IC50s were examined by eye to make sure the MIN and MAX points were set correctly prior to validation of the results.
For the compound `[2H]C([2H])(C(=O)NCc1cc(-c2ccc(C(F)(F)F)nc2)ncn1)N(C(C)C)S(=O)(=O)c1ccc(F)cc1` [Example 83, 2,2-Dideuterio-2-(4-fluoro-N-isopropylphenylsulfonamido)-N-((6-(6-(trifluoromethyl)pyridin-3-yl)pyrimidin-4-yl)methyl)acetamide], the half-maximal inhibitory concentration (IC50) was determined as 58 nM.
On the same count and under the same terms, then `CC(C)N(CC(=O)NCc1cc(N2CCC(F)(F)CC2)ncn1)S(=O)(=O)c1ccc(F)cc1` [Example 81, N-((6-(4,4-Difluoropiperidin-1-yl)pyrimidin-4-yl)methyl)-2-(4-fluoro-N-isopropylphenylsulfonamido)acetamide], with 3000 nM; and `CC(C)N(C1(C(=O)NCc2cc(-c3ccc(C(F)(F)F)nc3)ncn2)CC1)S(=O)(=O)c1ccc(F)cc1` [Example 84, 1-(4-Fluoro-N-isopropylphenylsulfonamido)-N-((6-(6-(trifluoromethyl)pyridin-3-yl)pyrimidin-4-yl)methyl)cyclopropanecarboxamide], with 29 nM; and `CC(C)N(CC(=O)NCc1cc(N2CCC(C(F)(F)F)CC2)ncn1)S(=O)(=O)c1ccc(F)cc1` [Example 80, 2-(4-Fluoro-N-isopropylphenylsulfonamido)-N-((6-(4-(trifluoromethyl)piperidin-1-yl)pyrimidin-4-yl)methyl)acetamide], with 251 nM.
For `CC(C)N(CC(=O)NCc1cccc(-c2cnc(N3CCC[C@H]3C)nc2)c1)S(=O)(=O)c1ccc(F)cc1` (single isomer, unassigned) [79-(R)], the IC50 turned out to be 55 nM.
On to `CC(C)N(CC(=O)NCc1cccc(N2CCCC2)c1)S(=O)(=O)c1ccc(F)cc1` [Example 77, 2-(4-fluoro-N-isopropylphenylsulfonamido)-N-(3-(pyrrolidin-1-yl)benzyl)acetamide], for which the half-maximal inhibitory concentration (IC50) came to 883 nM.
On the same count and under the same terms, in the case of `O=C(CN(c1ccc(F)cc1)S(=O)(=O)c1ccc(F)cc1)NCc1cc(-c2ccc(C(F)(F)F)nc2)ncn1` [Example 86, 2-(4-fluoro-N-(4-fluorophenyl)phenylsulfonamido)-N-((6-(6-(trifluoromethyl)pyridin-3-yl)pyrimidin-4-yl)methyl)acetamide] it was 9 nM; in that of `CC(C)N(CC(=O)NCc1cccc(-c2ccc(C(F)(F)F)cc2)c1)S(=O)(=O)c1ccn(C)n1` [Example 82, 2-(N-Isopropyl-1-methyl-1H-pyrazole-3-sulfonamido)-N-((4′-(trifluoromethyl)biphenyl-3-yl)methyl)acetamide], 2400 nM; in that of `CC(C)N(CC(=O)NCc1cccc(C2CC2)c1)S(=O)(=O)c1ccc(F)cc1` [Example 78, N-(3-cyclopropylbenzyl)-2-(4-fluoro-N-isopropylphenylsulfonamido)acetamide], 1000 nM.
Same read-out and setting: in the case of `CC(C)N(CC(=O)NCc1cccc(-c2cnc(N3CCC[C@@H]3C)nc2)c1)S(=O)(=O)c1ccc(F)cc1` (single isomer, unassigned) [79-(S)] it was 38 nM.

Usually IC50 stands for the midpoint of a concentration-inhibition curve.

Values taken from patent US9580411B2, “Substituted sulfonamide compounds” (Hoffmann-La Roche Inc., priority 2012, dated 2017).
